Assay results from patent publication US9790207B2, “Pan-genomic inhibitors of NS5A protein encoded by HCV, pharmaceutical compositions, intermediates for inhibitor synthesis, and their synthesis and application methods” (priority 2015, dated 2017).
Structures can show the parent of a compound that is named as a salt. Where two headings read alike, the source gives them in different places.

Tests used:
[1] = Bioavailability of new inhibitors in rats; details: rat, in vivo
HCV gT1a replicon = assay: HCV replicon assay, gT1a; format: cell-based, Hepatitis C virus (HCV); details: Huh7 replicon cells, mean
Method: (§1) The HCV replicon assay was used to determine the antiviral activity of compounds of general formula 2 (test compounds). The test cell line used in the HCV Replicon Assay was the human hepatoma cell line Huh7 incorporating the HCV replicons synthesized by an outside vendor.
(§2) 96-well plates were seeded with cells at a density of 7.5×10^3 cells per well in 50 μl of assay media. The compound stock solution was made up freshly in an assay medium (DMEM 1×, Cellgro; cat. #10-013-CV) as a 2× stock. A total of 11 serial 3-fold dilutions of test compounds were prepared from the 2× stock in the assay media ranging from 20 nM-0.2 pM final concentrations. At least 4 hours after seeding the cells, compound treatment was initiated by adding 50 μl of compound dilution to the plates. The final concentrations of compound therefore ranged from 10 nM to 0.1 pM when diluted 1:1 in culture media. The final DMSO concentration was 0.5%. Cells and inhibitors were incubated for 3 days at 37° C./5% CO2. The media was removed from the plates by gentle tapping. The cells were fixed with 100 μl 1:1 acetone:methanol for 1 minute, washed three times with PBS buffer, and then blocked with 150 μl/well 10% Fetal Bovine Serum (FBS) in PBS for 1 hour at room temperature. The cells were then washed three times with PBS buffer and incubated with 100 μl/well anti-hepatitis C core mAb (Affinity BioReagents; cat. # MA1-080, 1 mg/ml stock diluted 1:4,000 in 10% FBS-PBS) for 2 hours at 37° C. Then, the cells were washed three times with PBS and incubated with 100 μl/well HRP-Goat Anti-Mouse antibody (diluted 1:3.500 in 10% FBS-PBS) for 1 hour at 37° C. The cells were then washed three times with PBS and developed with an OPD solution, 100 μl/well (1 OPD tablet+12 ml citrate/phosphate buffer+5 μl 30% H2O2 per plate), for 30 minutes in the dark at room temperature. The reaction was stopped with 2N H2SO4 (100 μl/well), and the absorbance was measured at A490 X on a Victor^3 V 1420 multilabel counter (Perkin Elmer).

HCV gT5a replicon = assay: HCV replicon assay, gT5a; format: cell-based, Hepatitis C virus (HCV)
Method: as §1, §2

HCV gT1b replicon = assay: HCV replicon assay, gT1b; format: cell-based, Hepatitis C virus (HCV); details: Huh7 replicon cells, mean value
Method: as §1, §2

HCV gT4a replicon = assay: HCV replicon assay, gT4a; format: cell-based, Hepatitis C virus (HCV)
Method: as §1, §2

HCV gT2a replicon = assay: HCV replicon assay, gT2a; format: cell-based, Hepatitis C virus (HCV); details: Huh7 replicon cells, mean
Method: as §1, §2

[2] = Cytotoxicity, cell viability by ATPLite Kit; format: cell-based, human; details: human, Huh7 cells (human hepatoma cell line), 10% FBS, maximal inhibition, read-out: Cytotox gT1b 10% FBS max. inh.
Method: (§3) The cytotoxicity of the test compounds was studied in parallel using the same cell line, Huh7. Cell viability was determined using the ATPLite Kit (Perkin-Elmer, Boston, USA), according to manufacturer's instructions. 96-well black/transparent bottom plates were seeded with cells at a density of 7.5×10^3 cells per well in 50 μl medium. After 18 hours, compound treatment was initiated by adding 50 μl of compound dilution into the plates. Each compound dilution was tested in triplicates. The cells and inhibitors were then incubated for 96 hours at 37° C./5% CO2. The plates were washed twice with PBS (0.2 ml/well), and then lysed by adding lysis buffer, 0.05 ml/well (all reagents were included with the ATPLite Kit). After rocking for 5 min on a rocking platform, substrate buffer was added (0.05 ml/well). After additional 5-min incubation, the plates were kept in dark for 10 min, and the luminescence was read using TopCount NXT (Packard, Perkin Elmer). CC50 values for all test compounds were determined using XLfit 4.1 software (Table 2).

HCV gT3a replicon = assay: HCV replicon assay, gT3a; format: cell-based, Hepatitis C virus (HCV)
Method: as §1, §2

[3] = test system: human hepatoma cell line Huh7; assay: Cytotoxicity, cell viability by ATPLite Kit; format: cell-based; details: 96 hours, maximal inhibition
Method: as §3

HCV Genotype NS5A GT2a = details: known inhibitors, literature values, cited from earlier work
HCV Genotype NS5A GT1a = details: known inhibitors, literature values; cited from earlier work
HCV Genotype NS5A GT4a = details: known inhibitors, literature values; cited from earlier work
HCV Genotype NS5A GT1b = details: known inhibitors, literature values; cited from earlier work
HCV Genotype NS5A GT5a = details: known inhibitors, literature values; cited from earlier work
[4] = known inhibitors, literature values; cited from earlier work
HCV Genotype NS5A GT3a = details: known inhibitors, literature values, cited from earlier work
[5] = Hepatitis C virus, GT5A, Huh-7, read-out: gT5a, EC50 (pM) mean
[6] = Hepatitis C virus, GT1B, Huh-7, 10% FBS, read-out: gT1b 10% FBS, EC50 (pM) mean
[7] = Hepatitis C virus, GT1B, Huh-7, 40% NHS, read-out: gT1b 40% NHS, EC50 (pM) mean
[8] = Hepatitis C virus, GT4A, Huh-7, read-out: gT4a, EC50 (pM) mean
[9] = Hepatitis C virus, GT3A, Huh-7, Huh7 replicon cells, mean, read-out: gT3a, EC50 (pM) mean

| Structure (SMILES) | EC50 (HCV gT1a replicon; Hepatitis C virus, GT1A, Huh-7) [pM] | EC50 (HCV gT5a replicon; [5]) [pM] | EC50 (HCV gT1b replicon; [6]) [pM] | EC50 (HCV gT1b replicon; [7]) [pM] | EC50 (HCV gT4a replicon; [8]) [pM] | EC50 (HCV gT2a replicon; Hepatitis C virus, GT2A, Huh-7) [pM] | inhibition at 96 h [2] [%] | EC50 (HCV gT3a replicon; [9]) [pM] | EC50 (HCV Genotype NS5A GT2a) [pM] | EC50 (HCV Genotype NS5A GT1a) [pM] | EC50 (HCV Genotype NS5A GT4a) [pM] | EC50 (HCV Genotype NS5A GT1b) [pM] | also measured |
| --- | --- | --- | --- | --- | --- | --- | --- | --- | --- | --- | --- | --- | --- |
| COC(=O)N[C@H](C(=O)N1CCC[C@H]1c1ncc(-c2ccc(C#CC#Cc3cnc([C@@H]4CCCN4C(=O)[C@H](NC(=O)OC)c4ccccc4)[nH]3)c(-c3ccccc3)c2)[nH]1)C(C)C.Cl.Cl [2(7)•2HCl, [(S)-1-((S)-2-{5-[6-(4-{2-[(S)-1-((R)-2-Methoxycarbonylamino-2-phenyl-acetyl)-pyrrolidin-2-yl]-3H-imidazol-4-yl}-buta-1,3-diynyl)-biphenyl-3-yl]-1H-imidazol-2-yl}-pyrrolidine-1-carbonyl)-2-methyl-propyl]-carbamic acid methyl ester dihydrochloride] | 22.5 | 19.8 | 1.92 | 12.6 | 8.5 | 5.9 | 32 | 23 | – | – | – | – | bioavailability [1]: 31% |
| COC(=O)N[C@H](C(=O)N1CCC[C@H]1c1ncc(-c2ccc(C#CC#Cc3cnc([C@@H]4CCCN4C(=O)[C@H](NC(=O)OC)c4ccccc4)[nH]3)c(-c3ccc(N(C)C)cc3)c2)[nH]1)C(C)C.Cl.Cl.Cl [2(14)•2HCl, [(S)-1-((S)-2-{5-[4′-Dimethylamino-6-(4-{2-[(S)-1-((R)-2-methoxycarbonylamino-2-phenyl-acetyl)-pyrrolidin-2-yl]-3H-imidazol-4-yl}-buta-1,3-diynyl)-biphenyl-3-yl]-1H-imidazol-2-yl}-pyrrolidine-1-carbonyl)-2-methyl-propyl]-carbamic acid methyl ester troihydrochloride] | – | – | – | – | – | – | – | – | – | – | – | – | EC50 (HCV gT1a replicon): 138 pM; EC50 (HCV gT5a replicon; Huh7 replicon cells, mean, read-out: gT5a, EC50 (pM) mean): 52 pM; EC50 (HCV gT1b replicon; 10% FBS, read-out: gT1b 10% FBS, EC50 (pM) mean): 1.51 pM; EC50 (HCV gT1b replicon; 40% NHS, read-out: gT1b 40% NHS, EC50 (pM) mean): 13 pM; EC50 (HCV gT4a replicon; Huh7 replicon cells, mean, read-out: gT4a, EC50 (pM) mean): 10.8 pM; EC50 (HCV gT2a replicon): 12.8 pM; Cytotox gT1b 10% FBS max. inh. [3]: 23%; EC50 (HCV gT3a replicon; Huh7 replicon cells, mean, read-out: gT3a, EC50 (pM) mean): 38.5 pM |
| COC(=O)N[C@H](C(=O)N1CCC[C@H]1c1ncc(-c2ccc(-c3ccc(-c4cnc([C@@H]5CCCN5C(=O)[C@H](NC(=O)OC)c5ccccc5)[nH]4)cc3)c(N(C)c3ccccc3)c2)[nH]1)C(C)C [2(25)•2HCl, [(S)-1-((S)-2-{5-[4′-{2-[(S)-1-((R)-2-Methoxycarbonylamino-2-phenyl-acetyl)-pyrrolidin-2-yl]-3H-imidazol-4-yl}-2-(methyl-phenyl-amino)-biphenyl-4-yl]-1H-imidazol-2-yl}-pyrrolidine-1-carbonyl)-2-methyl-propyl]-carbamic acid methyl ester trihydrochloride] | 345 | 43.2 | 1.72 | 11.5 | 13.9 | 5.5 | 18 | 24.2 | – | – | – | – | – |
| COC(=O)N[C@H](C(=O)N1CCC[C@H]1c1ncc(-c2cc(F)c(-c3ccc(-c4cnc([C@@H]5CCCN5C(=O)[C@H](NC(=O)OC)c5ccccc5)[nH]4)cc3)c(-c3ccccc3)c2)[nH]1)C(C)C [2(26)•2HCl, ((S)-1-{(S)-2-[5-(6′-Fluoro-4-{2-[(S)-1-((R)-2-methoxycarbonylamino-2-phenyl-acetyl)-pyrrolidin-2-yl]-3H-imidazol-4-yl}-[1,1′;2′,1″]terphenyl-4′-yl)-1H-imidazol-2-yl]-pyrrolidine-1-carbonyl}-2-methyl-propyl)-carbamic acid methyl ester dihydrochloride] | 30.3 | 14.3 | 3.2 | 14.5 | 7.9 | 3.1 | 39 | – | – | – | – | – | EC50 (HCV gT3a replicon; Hepatitis C virus, GT3A, Huh-7, read-out: gT3a, EC50 (pM) mean, Huh7 replicon cells): 9.2 pM; EC50 (HCV gT3a replicon; Huh7 replicon cells, mean, dihydrochloride, read-out: gT3a, EC50 (pM) mean): 9.8 pM |
| COC(=O)N[C@H](C(=O)N1CCC[C@H]1c1ncc(-c2cc(C)c(-c3ccc(-c4cnc([C@@H]5CCCN5C(=O)[C@H](NC(=O)OC)c5ccccc5)[nH]4)cc3)c(-c3ccccc3)c2)[nH]1)C(C)C [2(27)•2HCl, ((S)-1-{(S)-2-[5-(4-{2-[(S)-1-((R)-2-Methoxycarbonylamino-2-phenyl-acetyl)-pyrrolidin-2-yl]-3H-imidazol-4-yl}-6′-methyl-[1,1′;2′,1″]terphenyl-4′-yl)-1H-imidazol-2-yl]-pyrrolidine-1-carbonyl}-2-methyl-propyl)-carbamic acid methyl ester dihydrochloride] | 203 | 25.8 | 5.1 | 14.5 | 12.3 | 7.9 | 31 | 25.2 | – | – | – | – | – |
| COC(=O)N[C@H](C(=O)N1CCC[C@H]1c1ncc(C#CC#Cc2ccc(-c3cnc([C@@H]4CCCN4C(=O)[C@@H](NC(=O)OC)C(C)C)[nH]3)cc2)[nH]1)C(C)C [AV-4025, Hepavivir] | – | – | – | – | – | – | – | – | 51 | 59 | 12 | 3.4 | EC50 (HCV Genotype NS5A GT5a): 172 pM; EC50, pM HCV Genotype NS5A GT5a (HCV Genotype NS5A GT5a): insufficient activities; Bioavailability in rat, F, % [4]: 65.0%; EC50, pM HCV Genotype NS5A GT3a (HCV Genotype NS5A GT3a): insufficient activities |
| COC(=O)N[C@H](C(=O)N1CC2(CC2)C[C@H]1c1nc(-c2ccc3c(c2)C(F)(F)c2cc(-c4ccc5[nH]c([C@@H]6[C@H]7CC[C@H](C7)N6C(=O)[C@@H](NC(=O)OC)C(C)C)nc5c4)ccc2-3)c[nH]1)C(C)C [Ledipasvir] | – | – | – | – | – | – | – | – | 20.8 | 31 | 7 | 5 | EC50 (HCV Genotype NS5A GT2a; listed as Ledipasvir (GS-5885)): 20800 pM; EC50, pM HCV Genotype NS5A GT5a (HCV Genotype NS5A GT5a): insufficient activities; EC50 (HCV Genotype NS5A GT3a): 10.1 pM; EC50, pM HCV Genotype NS5A GT3a (HCV Genotype NS5A GT3a): insufficient activities; EC50 (HCV Genotype NS5A GT3a; listed as Ledipasvir (GS-5885)): 10100 pM |
| COC(=O)N[C@H](C(=O)N1CCC[C@H]1C(=O)Nc1ccc([C@@H]2CC[C@@H](c3ccc(NC(=O)[C@@H]4CCCN4C(=O)[C@@H](NC(=O)OC)C(C)C)cc3)N2c2ccc(C(C)(C)C)cc2)cc1)C(C)C [Ombitasvir] | – | – | – | – | – | – | – | – | 12.4 | 14.1 | 1.7 | 5 | EC50 (HCV Genotype NS5A GT5a): 4.3 pM; EC50 (HCV Genotype NS5A GT3a): 19.3 pM |
